{
  "source": "patent US20240269489A1",
  "about": "“TREATMENT OF THE CENTRAL NERVOUS SYSTEM” (ACT Therapeutics Ltd, priority 2021, published 2024)",
  "test_system": "subcutaneous prostate cancer model (PC3)",
  "assay": "Tumour specific uptake of Evans Blue after ACT, variable Enhancement MI",
  "assay_type": "in vivo, mice",
  "conditions": "cluster composition 2 mL/kg i.v.; Enhancement 0.5 MHz, MI 0, 0.1, 0.2, 0.3, 0.4; tumours excised 30 min after treatment",
  "description": "To investigate the effect of MI variance of the US Enhancement field, tumour specific uptake of Evans Blue (EB, fluorescent dye) has been investigated in a subcutaneous prostate cancer model (PC3) in mice. Five groups with Enhancement insonation MIs of 0, 0.1, 0.2, 0.3 and 0.4 were investigated (N=3 animals per group). […] 30 min after treatment, the tumors were excised and the amount of EB was measured by spectrophotometry at 620 nm.",
  "data": [
    {"compound": "Cc1cc(-c2ccc(/N=N/c3ccc4c(S(=O)(=O)O)cc(S(=O)(=O)O)c(N)c4c3O)c(C)c2)ccc1/N=N/c1ccc2c(S(=O)(=O)O)cc(S(=O)(=O)O)c(N)c2c1O", "note": "[Evans Blue]", "values": [
      {"measurement": "tissue uptake of Evans Blue as a function of Enhancement MI", "value": "increases from no US (MI=0) to MI=0.1 and further with MI=0.2, but then drops again with MI=0.3"}
    ]}
  ]
}
